In ChEMBL document CHEMBL1629695, “A novel polymyxin derivative that lacks the fatty acid tail and carries only three positive charges has strong synergism with agents excluded by the intact outer membrane” (Antimicrob Agents Chemother, 2010):
In brackets after ≈: the same amount, converted by molar mass. Activity calls are given as the source filed them. The rule behind the calls is not given here. Bridge positions count the residues as written; N and C are the ends. Square brackets hold non-standard residues; d marks the D form. Peptide text beside a SMILES is read from it. Dab = NCC[C@H](N)C(=O)O

What was measured:
Acinetobacter baumannii [1] = assay: Antimicrobial activity against Acinetobacter baumannii ATCC 19606 by Etest method; type: functional
Escherichia coli [2] = assay: Antimicrobial activity against Escherichia coli IH3080 by Etest method; type: functional
Acinetobacter baumannii [3] = assay: Antimicrobial activity against Acinetobacter baumannii ATCC 19606 by Etest method in presence of 2 ug/ml NAB741; type: functional
Escherichia coli [4] = assay: Antimicrobial activity against Escherichia coli ATCC 25922 in presence of 4 ug/ml NAB741; type: functional
Escherichia coli [5] = assay: Ratio of MIC for Escherichia coli IH3080 to MIC for Escherichia coli IH3080 in presence of 4 ug/ml of NAB741; type: functional
Escherichia coli [6] = assay: Antimicrobial activity against Escherichia coli ATCC 25922 by Etest method; type: functional
Klebsiella pneumoniae [7] = assay: Antimicrobial activity against in Klebsiella pneumoniae ATCC 13883 in presence of NAB741; type: functional
Escherichia coli [8] = assay: Antimicrobial activity against Escherichia coli ATCC 25922 by Etest method in presence of 2 ug/ml NAB741; type: functional
Escherichia coli [9] = assay: Antimicrobial activity against Escherichia coli ATCC 25922 in presence of 8 ug/ml NAB741; type: functional
Escherichia coli [10] = assay: Antimicrobial activity against in Escherichia coli IH3080 in presence of NAB741; type: functional
Escherichia coli [11] = assay: Antimicrobial activity against in Escherichia coli ATCC 25922 in presence of NAB741; type: functional
Enterobacter cloacae [12] = assay: Antimicrobial activity against Enterobacter cloacae ATCC 23355 by Etest method; type: functional
Klebsiella pneumoniae [13] = assay: Antimicrobial activity against Klebsiella pneumoniae ATCC 13883 by Etest method in presence of 4 ug/ml NAB741; type: functional
Escherichia coli [14] = assay: Antimicrobial activity against Escherichia coli ATCC 25922 in presence of 32 ug/ml NAB741; type: functional
Enterobacter cloacae [15] = assay: Antimicrobial activity against Enterobacter cloacae ATCC 23355 by Etest method in presence of 4 ug/ml NAB741; type: functional
Escherichia coli [16] = assay: Antimicrobial activity against Escherichia coli ATCC 25922 by Etest method in presence of 4 ug/ml NAB741; type: functional
Enterobacter cloacae [17] = assay: Antimicrobial activity against in Enterobacter cloacae ATCC 23355 in presence of NAB741; type: functional
Escherichia coli [18] = assay: Antimicrobial activity against Escherichia coli ATCC 25922 in presence of 2 ug/ml NAB741; type: functional
Escherichia coli [19] = assay: Antimicrobial activity against Escherichia coli IH3080 by Etest method in presence of 4 ug/ml NAB741; type: functional
Klebsiella pneumoniae [20] = assay: Ratio of MIC for Klebsiella pneumoniae ATCC 13883 to MIC for Klebsiella pneumoniae ATCC 13883 in presence of 4 ug/ml of NAB741; type: functional
Klebsiella pneumoniae [21] = assay: Antimicrobial activity against Klebsiella pneumoniae ATCC 13883 by Etest method; type: functional
Escherichia coli [22] = assay: Ratio of MIC for Escherichia coli ATCC 25922 to MIC for Escherichia coli ATCC 25922 in presence of 4 ug/ml of NAB741; type: functional
Klebsiella pneumoniae [23] = assay: Antimicrobial activity against Klebsiella pneumoniae ATCC 13883 by Etest method in presence of 2 ug/ml NAB741; type: functional
Acinetobacter baumannii [24] = assay: Antimicrobial activity against in Acinetobacter baumannii ATCC 19606 in presence of NAB741; type: functional
Escherichia coli [25] = assay: Antimicrobial activity against Escherichia coli IH3080 by Etest method in presence of 2 ug/ml NAB741; type: functional
Enterobacter cloacae [26] = assay: Ratio of MIC for Enterobacter cloacae ATCC 23355 to MIC for Enterobacter cloacae ATCC 23355 in presence of 4 ug/ml of NAB741; type: functional
Escherichia coli [27] = assay: Antimicrobial activity against Escherichia coli ATCC 25922; type: functional
Acinetobacter baumannii [28] = assay: Ratio of MIC for Acinetobacter baumannii ATCC 19606 to MIC for Acinetobacter baumannii ATCC 19606 in presence of 4 ug/ml of NAB741; type: functional
Acinetobacter baumannii [29] = assay: Antimicrobial activity against Acinetobacter baumannii ATCC 19606 by Etest method in presence of 4 ug/ml NAB741; type: functional
Escherichia coli [30] = assay: Antimicrobial activity against Escherichia coli ATCC 25922 in presence of […] ug/ml NAB741; type: functional
Enterobacter cloacae [31] = assay: Antimicrobial activity against Enterobacter cloacae ATCC 23355 by Etest method in presence of 2 ug/ml NAB741; type: functional
[32] = Total body clearance in Sprague-Dawley rat at 1 mg/kg, iv; type: ADME, organism-based; set-up: dose 1 mg/kg, route intravenous; conditions: in vivo
[33] = Renal clearance in Sprague-Dawley rat at 1 mg/kg, iv; type: ADME, organism-based, Kidney; set-up: dose 1 mg/kg, route intravenous; conditions: in vivo, read-out: CL_renal
[34] = Plasma concentration in Sprague-Dawley rat at 1 mg/kg, iv administered after 10 minutes; type: ADME, organism-based; set-up: dose 1 mg/kg, route intravenous
[35] = (§1) Volume of distribution in Sprague-Dawley rat at 1 mg/kg, iv; type: ADME, organism-based; set-up: dose 1 mg/kg, route intravenous; conditions: Sprague-Dawley, in vivo
Escherichia coli [36] = assay: Antimicrobial activity against Escherichia coli IH3080 assessed as zone of inhibition at 10 ug after 18 hrs by disk diffusion method; type: functional
Escherichia coli [37] = assay: Antimicrobial activity against Escherichia coli IH3080 assessed as zone of inhibition at 10 ug after 18 hrs by disk diffusion method in presence of 1 ug/ml rifampin; type: functional
[38] = (§2) Drug level in Sprague-Dawley rat urine at 1 mg/kg, iv; type: ADME, organism-based; set-up: dose 1 mg/kg, route intravenous; conditions: Sprague-Dawley, urine, read-out: Drug uptake
Acinetobacter baumannii [39] = assay: Antimicrobial activity against Acinetobacter baumannii ATCC 19606 assessed as zone of inhibition at 10 ug after 18 hrs by disk diffusion method; type: functional
Escherichia coli [40] = assay: Antimicrobial activity against Escherichia coli F19; type: functional
[41] = (§3) Half-life in Sprague-Dawley rat at 1 mg/kg, iv; type: ADME, organism-based; set-up: dose 1 mg/kg, route intravenous; conditions: Sprague-Dawley, in vivo
V79 = assay: Cytotoxicity against Chinese hamster V79 cells at 0.25 ug/ml to 128 ug/ml after 24 hrs; type: cell-based, Cricetulus griseus; conditions: v79, 24 h
Pseudomonas aeruginosa [42] = assay: Antimicrobial activity against Pseudomonas aeruginosa ATCC 27853 assessed as zone of inhibition at 10 ug after 18 hrs by disk diffusion method; type: functional
Pseudomonas aeruginosa [43] = assay: Antimicrobial activity against Pseudomonas aeruginosa ATCC 27853 assessed as zone of inhibition at 10 ug after 18 hrs by disk diffusion method in presence of 1 ug/ml rifampin; type: functional
Enterobacter cloacae [44] = assay: Antimicrobial activity against Enterobacter cloacae ATCC 23355 at 16 ug/ml; type: functional, organism-based
Acinetobacter baumannii [45] = assay: Antimicrobial activity against Acinetobacter baumannii ATCC 19606 assessed as zone of inhibition at 10 ug after 18 hrs by disk diffusion method in presence of 1 ug/ml rifampin; type: functional
Rattus norvegicus [46] = assay: as §1; type: ADME, organism-based; set-up: dose 1 mg/kg, route intravenous; conditions: in vivo
Rattus norvegicus [47] = assay: as §2; type: ADME, organism-based; set-up: dose 1 mg/kg, route intravenous; conditions: in vivo
Rattus norvegicus [48] = assay: as §3; type: ADME, organism-based; set-up: dose 1 mg/kg, route intravenous; conditions: in vivo

Molecule	MIC (Acinetobacter baumannii [1])	MIC (Escherichia coli [2])	MIC (Acinetobacter baumannii [3])	MIC (Escherichia coli [4])	MIC (Escherichia coli [6])	MIC (Escherichia coli [8])	MIC (Escherichia coli [9])	fractional inhibitory concentration index (FICI) (Escherichia coli [10])	fractional inhibitory concentration index (FICI) (Escherichia coli [11])	MIC (Enterobacter cloacae [12])	MIC (Klebsiella pneumoniae [13])	MIC (Escherichia coli [14])	MIC (Enterobacter cloacae [15])	MIC (Escherichia coli [16])	fractional inhibitory concentration index (FICI) (Enterobacter cloacae [17])	MIC (Escherichia coli [18])	MIC (Escherichia coli [19])	MIC (Klebsiella pneumoniae [21])	MIC (Klebsiella pneumoniae [23])	fractional inhibitory concentration index (FICI) (Acinetobacter baumannii [24])	also measured
CC[C@H]1OC(=O)[C@H](C)[C@@H](O[C@H]2C[C@@](C)(OC)[C@@H](O)[C@H](C)O2)[C@H](C)[C@@H](O[C@@H]2O[C@H](C)C[C@H](N(C)C)[C@H]2O)[C@](C)(OC)C[C@@H](C)C(=O)[C@H](C)[C@@H](O)[C@]1(C)O [CLARITHROMYCIN]	8 µg/mL (≈ 10.7 µM)	12 µg/mL (≈ 16 µM)	0.75 µg/mL	1 µg/mL	16 µg/mL (≈ 21.4 µM)	0.5 µg/mL	0.5 µg/mL	0.126	0.094	48 µg/mL (≈ 64.2 µM)	1 µg/mL	0.063 µg/mL	0.5 µg/mL	0.094 µg/mL	0.135	32 µg/mL	0.125 µg/mL	12 µg/mL (≈ 16 µM)	4 µg/mL	0.156	Ratio (Escherichia coli [5]): 64; fractional inhibitory concentration index (FICI) (Klebsiella pneumoniae [7]): 0.167; Ratio (Klebsiella pneumoniae [20]): 6; Ratio (Escherichia coli [22]): 84; MIC (Escherichia coli [25]): 1 µg/mL; Ratio (Enterobacter cloacae [26]): 64; MIC (Escherichia coli [27]): ≥ 64 µg/mL; Ratio (Acinetobacter baumannii [28]): 12; MIC (Acinetobacter baumannii [29]): 0.5 µg/mL; MIC (Escherichia coli [30]): 0.25 µg/mL; MIC (Enterobacter cloacae [31]): 16 µg/mL
CO[C@H]1/C=C/O[C@@]2(C)Oc3c(C)c(O)c4c(O)c(c(/C=N/N5CCN(C)CC5)c(O)c4c3C2=O)NC(=O)/C(C)=C\C=C\[C@H](C)[C@H](O)[C@@H](C)[C@@H](O)[C@@H](C)[C@H](OC(C)=O)[C@@H]1C [RIFAMPIN]	1.5 µg/mL (≈ 1.82 µM)	4 µg/mL (≈ 4.86 µM)	0.19 µg/mL	1 µg/mL	4 µg/mL (≈ 4.86 µM)	0.64 µg/mL	0.25 µg/mL	0.111	0.126	6 µg/mL (≈ 7.29 µM)	0.5 µg/mL	0.031 µg/mL	0.016 µg/mL	0.016 µg/mL	0.126	4 µg/mL	0.047 µg/mL	12 µg/mL (≈ 14.6 µM)	1 µg/mL	0.131	MIC (Escherichia coli [25]): 0.19 µg/mL; MIC (Escherichia coli [27]): 8 µg/mL (≈ 9.72 µM); MIC (Acinetobacter baumannii [29]): 0.094 µg/mL; MIC (Escherichia coli [30]): 0.063 µg/mL; MIC (Enterobacter cloacae [31]): 1.5 µg/mL
CC(=O)N[C@H](C(=O)N[C@H](CO)C(=O)N[C@H]1CCNC(=O)[C@H]([C@@H](C)O)NC(=O)[C@H](CCN)NC(=O)[C@H](CCN)NC(=O)[C@H](CC(C)C)NC(=O)[C@@H](Cc2ccccc2)NC(=O)[C@H](CCN)NC1=O)[C@@H](C)O [SPR-741] (Ac-T[dS][Dab][Dab][dF]L[Dab][Dab]T; lactam 3-C)	–	–	–	–	–	–	–	–	–	–	–	–	–	–	–	–	–	–	–	–	clearance [32]: 7.39 mL/min/kg; CL renal [33]: 3.78 mL/min/kg; concentration at 10 min [34]: 3130 ng/mL; Vd [35]: 0.243 L/kg; inhibition zone (IZ) (Escherichia coli [36]): 12 mm2; inhibition zone (IZ) (Escherichia coli [37]): 230 mm2; dose excreted [38]: 50.9%; inhibition zone (IZ) (Acinetobacter baumannii [39]): 9 mm2; MIC (Escherichia coli [40]): 16 µg/mL (≈ 16.1 µM); half-life [41]: 32.7 min; Activity (V79): Non-toxic; inhibition zone (IZ) (Pseudomonas aeruginosa [42]): 4 mm2; inhibition zone (IZ) (Pseudomonas aeruginosa [43]): 20 mm2; Activity (Enterobacter cloacae [44]): Active; inhibition zone (IZ) (Acinetobacter baumannii [45]): 223 mm2
COLISTIN	–	–	–	–	–	–	–	–	–	–	–	–	–	–	–	–	–	–	–	–	Vd (Rattus norvegicus [46]): 0.496 L/kg; Drug uptake (Rattus norvegicus [47]): 0.18%; t1/2 (Rattus norvegicus [48]): 74.6 min
